Test results: PubChem BioAssay (NCI)
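All cell lines were grown in 96-well plates and treated with compound for 48 hours. GI50 marks 50% less growth. The concentration for full growth arrest is given as TGI.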

Columns and labels:
Test in all cases: inhibition of tumour cell growth, NCI panel, 48 h
[1] = system: HOP-92 NSCLC
[2] = system: SR leukemia
[3] = system: OVCAR-4 ovarian
[4] = system: U251 CNS
[5] = system: M14 melanoma
[6] = system: OVCAR-3 ovarian
[7] = system: HCC-2998 colon
[8] = system: HL-60(TB) leukemia
[9] = system: SK-MEL-2 melanoma
[10] = system: SN12C renal
[11] = system: CCRF-CEM leukemia
[12] = system: SF-539 CNS
[13] = system: NCI-H522 lung
[14] = system: UO-31 renal
[15] = system: RPMI-8226 leukemia
[16] = system: SK-MEL-28 melanoma
[17] = system: SNB-75 CNS
[18] = system: SF-295 CNS
[19] = system: MALME-3M melanoma
[20] = system: RXF 393 renal
[21] = system: A498 renal
[22] = system: UACC-257 melanoma
[23] = system: NCI-H23 lung
[24] = system: HOP-62 NSCLC
[25] = system: MCF7 breast
[26] = system: OVCAR-8 ovarian
[27] = system: LOX IMVI melanoma
[28] = system: A549 NSCLC
[29] = system: MDA-MB-468 breast
[30] = system: BT-549 breast
[31] = system: SK-OV-3 ovarian
[32] = system: SK-MEL-5 melanoma
[33] = system: SF-268 CNS
[34] = system: TK-10 renal
[35] = system: KM12 colon
[36] = system: HS 578T breast
[37] = system: MDA-MB-231 breast
[38] = system: SW-620 colon
[39] = system: HCT-116 colon
[40] = system: IGROV1 ovarian
[41] = system: HT29 colon
[42] = system: 786-0 renal
[43] = system: K-562 leukemia
[44] = system: MDA-MB-435
[45] = system: UACC-62 melanoma
[46] = system: DU-145 prostate
[47] = system: PC-3 prostate
[48] = system: T-47D breast
[49] = system: SNB-19 CNS
[50] = system: OVCAR-5 ovarian
[51] = system: NCI/ADR-RES ovarian
[52] = system: NCI-H226 lung
[53] = system: MOLT-4 leukemia
[54] = system: CAKI-1 renal
[55] = system: EKVX NSCLC
[56] = system: NCI-H460 lung
[57] = system: ACHN renal
[58] = system: HCT-15 colon
[59] = system: COLO 205 colon

O=C(Cc1ccc2c(c1)CN(C1CCC(=O)NC1=O)C2=O)NCCc1ccccc1 (stereo unspecified)
GI50 [1]: 13.4 nM
TGI [1]: 146 nM
GI50 [2]: > 76500 nM
TGI [2]: > 100000 nM
GI50 [3]: 436 nM
TGI [3]: > 70900 nM
GI50 [4]: > 25100 nM
TGI [4]: > 100000 nM
GI50 [5]: 114 nM
TGI [5]: > 56400 nM
GI50 [6]: 2240 nM
TGI [6]: > 100000 nM
GI50 [7]: 45.1 nM
TGI [7]: 1320 nM
GI50 [8]: < 10 nM
TGI [8]: 2190 nM
GI50 [9]: 225 nM
TGI [9]: 1820 nM
GI50 [10]: 188 nM
TGI [10]: > 30900 nM
GI50 [11]: < 10 nM
GI50 [12]: 564 nM
TGI [12]: > 100000 nM
GI50 [13]: > 20200 nM
TGI [13]: > 100000 nM
GI50 [14]: 226 nM
TGI [14]: 6270 nM
GI50 [15]: 441 nM
TGI [15]: > 100000 nM
GI50 [16]: 589 nM
TGI [16]: > 100000 nM
GI50 [17]: 42 nM
TGI [17]: 2200 nM
GI50 [18]: 530 nM
TGI [18]: > 100000 nM
GI50 [19]: 13.5 nM
TGI [19]: 74.6 nM
GI50 [20]: 402 nM
TGI [20]: > 24100 nM
GI50 [21]: 297 nM
TGI [21]: 7760 nM
GI50 [22]: > 100000 nM
TGI [22]: > 100000 nM
GI50 [23]: > 60800 nM
TGI [23]: > 100000 nM
GI50 [24]: 30.9 nM
TGI [24]: 1320 nM
GI50 [25]: 200 nM
TGI [25]: > 100000 nM
GI50 [26]: 32.3 nM
TGI [26]: > 21400 nM
GI50 [27]: > 100000 nM
TGI [27]: > 100000 nM
GI50 [28]: 663 nM
TGI [28]: > 100000 nM
GI50 [29]: < 10 nM
TGI [29]: 16.8 nM
GI50 [30]: 19.2 nM
TGI [30]: 75.5 nM
GI50 [31]: 484 nM
TGI [31]: > 85700 nM
GI50 [32]: 156 nM
TGI [32]: 991 nM
GI50 [33]: 510 nM
TGI [33]: > 100000 nM
GI50 [34]: 727 nM
TGI [34]: > 100000 nM
GI50 [35]: 276 nM
TGI [35]: > 100000 nM
GI50 [36]: 38.5 nM
TGI [36]: 3100 nM
GI50 [37]: < 10 nM
TGI [37]: 10.2 nM
GI50 [38]: 39.1 nM
TGI [38]: > 100000 nM
GI50 [39]: 67900 nM
TGI [39]: > 100000 nM
GI50 [40]: 33.6 nM
TGI [40]: 1080 nM
GI50 [41]: 530 nM
TGI [41]: > 100000 nM
GI50 [42]: 124 nM
TGI [42]: > 100000 nM
GI50 [43]: 581 nM
TGI [43]: > 100000 nM
GI50 [44]: 551 nM
TGI [44]: > 100000 nM
GI50 [45]: 2460 nM
TGI [45]: > 100000 nM
GI50 [46]: 20800 nM
TGI [46]: > 100000 nM
GI50 [47]: 36.7 nM
TGI [47]: > 100000 nM
GI50 [48]: 21.8 nM
TGI [48]: 414 nM
GI50 [49]: 76.7 nM
TGI [49]: > 28700 nM
GI50 [50]: 145 nM
TGI [50]: 30500 nM
GI50 [51]: 5940 nM
TGI [51]: > 100000 nM
GI50 [52]: 68.5 nM
TGI [52]: 1410 nM
GI50 [53]: < 10 nM
TGI [53]: > 100000 nM
GI50 [54]: 276 nM
TGI [54]: > 100000 nM
TGI [55]: > 100000 nM
GI50 [56]: > 100000 nM
TGI [56]: > 100000 nM
GI50 [57]: 5320 nM
TGI [57]: > 100000 nM
GI50 [58]: 166 nM
TGI [58]: 4750 nM
GI50 [59]: 43.8 nM
TGI [59]: 1280 nM
